A word on the inhibition: it is the relative decrease from the control value, in per cent.

The test system of one data set is NF-κB. Particulars: M1619 cells, 50 μmol/L overnight; P<0.001 by densitometry.
The test system of another data set is NF-κB p65. Particulars: M1619 cells, 50 μmol/L overnight.
For a further data set, the system named is AP-1. The settings on record: M1619 cells, overnight, 10-20 μmoles/L.
For a further data set, the system named is OCT-1. The settings on record: M1619 cells, overnight, 10-20 μmoles/L.
Data set [1] has as its system cyclic-AMP responsive element (CRE). The settings on record: M1619 cells, overnight, 10, 15, 20 μmoles/L; P<0.001 vs untreated.
Another data set relates to IκBα. The settings on record: M1619 cells, 25 μmoles/L overnight.
In data set [2] the test system is M1619 malignant melanoma cells. Description: Proliferation of cultured cells with oxidase inhibitors (MTT assay). The settings on record: for Melanoma growth: M1619, data not shown. The class given is cell-based, human. For orientation: Formazan colour is commonly taken as a measure of viable cells.
The test system of a further data set is p65 component of NF-κB. Particulars: M1619 cells, 50 μmol/L overnight.
The subject of data set [3] is M1619 malignant melanoma cells. Particulars: Brar and co-workers; cited from earlier work.
Data set [4] has as its system H596 non-small-cell lung cancer cells. The settings on record: Brar et al. (2001); cited from earlier work.
The test system of a further data set is M1619 cells. The data set can be described thus: Proliferation after transfection of p22phox or NOX4 sense/antisense oligonucleotides (MTT assay). The settings on record: 2 μg oligonucleotide, 6 hours transfection, 48 hours growth, P<0.01. The class given is cell-based, human.

On to `c1ccc2c(c1)[I+]c1ccccc1-2` [DPI, diphenylene iodonium], for which the “Constitutive NF-κB DNA binding” value in the data set on NF-κB is reported as “greatly reduced”. In addition, the “Constitutive nuclear translocation of NF-κB (anti-p65 staining in nuclei)” value in the data set on NF-κB p65 is recorded as “reduces constitutive nuclear translocation of NF-κB”. For the same compound, in the data set on AP-1, the “DNA binding to the AP-1 oligonucleotide consensus sequence” value is “does not inhibit”. Besides, the “DNA binding to the OCT-1 oligonucleotide consensus sequence” value with OCT-1 is listed as “does not inhibit”. Besides, the “CRE DNA binding activity of nuclear protein” value in [1] is reported as “inhibits CRE-binding activity in a dose-dependent manner”. Also, the “Phosphorylation of the NF-κB inhibitor IκBα (serine 32)” value with IκBα is “decreased phosphorylation”. The inhibition at 50 µM in [2] (Homo sapiens, after 48 hours, highest dose (50 μmol/L), 10% FBS, P<0.001, read-out: Inhibition of M1619 malignant melanoma cell growth) amounted to 86 ± 0.5%. Moreover, the “Immunoreactive p65 in nuclear protein” value in the data set on p65 component of NF-κB was “reduces immunoreactive p65 in nuclear protein”.

As for `Oc1ncnc2[nH]ncc12` [allopurinol], the Melanoma growth result in [2] (1 mmol/L) is given as “unaffected”.

For the compound `O=c1oc2ccccc2c(O)c1Cc1c(O)c2ccccc2oc1=O` [dicumarol], the “Cellular proliferation in M1619 malignant melanoma cells” value in data set [3] is “inhibition”. Moreover, the “Growth of H596 non-small-cell lung cancer cells” value in [4] is listed as “inhibited growth”.

`N=C(NCCC[C@H](N)C(=O)O)N[N+](=O)[O-]` [ω-nitro-L-arginine]: in data set [2] (100 μmol/L), the Melanoma growth result is listed as “unaffected”.

As for “NOX4 antisense oliogonucleotides: antisense 5′-AGCTCCTCCAGGACACAGCC-3′ based on NOX4 gene-specific sequence (listed as DNA, chemistry not given here)”, the “Subsequent growth compared with sense oligonucleotides” value in the data set with M1619 cells was “significantly reduced subsequent growth”.

Turning to “p22^phox antisense oliogonucleotides: previously reported antisense 5′-GATCTGCCCCATGGTGAGGACC-3′ for p22phox mRNA (listed as DNA, chemistry not given here)”, in the data set on M1619 cells, the “Subsequent growth compared with sense oligonucleotides” value was “significantly reduced subsequent growth”.

The values above are taken from patent US6987127B2, “Regulation of NAD(P)H oxidase growth and transcription in melanoma cells” (Charlotte-Mecklenburg Hospital Authority, priority 2001, dated 2006).
